Data as given in patent US9358272B2, “Multicomponent compositions and their uses” (THE ADMINISTRATORS OF THE TULANE EDUCATIONAL FUND, priority 2011, dated 2016).
“Also recorded” adds a separate entry of the source.

What was measured:
[1] = test system: Leukemia MOLT-4 cells; assay: VPA-induced cell morphological change, MOLT-4 cells; format: cell-based
From the text: (§1) The cancer cells were inspected and photographed under an inverted light microscope at 10× magnification.

[2] = test system: pancreatic carcinoid BON tumors; assay: In vivo tumor growth and treatment, BON tumors; set-up: species or system nude mice; settings: FIG. 43
Method: In Vivo Tumor Growth and Treatment
(§6) All mice were monitored weekly. Tumor volumes were measured at 11 days post-implantation and bodyweights taken once a week. Tumors were weighed and photographed when experiments were over.
(§7) After being harvested during exponential growth phase, cells were washed 3 times with ice-cold PBS and then re-suspended in ice-cold PBS at a cell density of 4×10^7 cells/ml. […] Tumor-carrying mice were separated into four groups (n=8-10) for further treatment using s.c. injections that was applied in the flank opposite of the tumors. A control group was injected with PBS, and three tested groups were treated with compounds. One group received conjugate COL-SST (2 mg/kg) and one group received 200 mg/kg of VPA. The last group was treated with 100 mg/kg of VPA in combination with 1 mg/kg of COL-SST. All mice were injected once a day, five times a week. Tumor volumes were measured and bodyweights taken once a week.
After being harvested during their exponential growth phase, cells were washed 3 times with ice-cold PBS and then re-suspended in ice-cold PBS at a cell density of 4×10^7 cells/ml. […] Tumor-carrying mice were separated into four groups (n=8-10) for further treatment using s.c. injections that were applied in the flank opposite to the tumors. […] Tumor volumes were measured and bodyweights taken once a week.

[3] = test system: cervical cancer Hela tumors; assay: In vivo tumor growth and treatment, Hela tumors; set-up: species or system nude mice; settings: for tumor inhibitory rate: Hela tumors in nude mice
Method: In Vivo Tumor Growth and Treatment
as §6, §7
After being harvested during their exponential growth phase, cells were washed 3 times with ice-cold PBS and then re-suspended in ice-cold PBS at a cell density of 4×10^7 cells/ml. […] Tumor-carrying mice were separated into four groups (n=8-10) for further treatment using s.c. injections that were applied in the flank opposite to the tumors. A control group was injected with PBS and three tested groups were treated with compounds. One group received conjugate COL-SST (2 mg/kg) and one group received 200 mg/kg of VPA. The last group was treated with 100 mg/kg of VPA in combination with 1 mg/kg of COL-SST. All mice were injected once a day, five times a week. Tumor volumes were measured and bodyweights taken once a week.

[4] = test system: lung cancer A549 cells; assay: Cell proliferation assay (MTT), A549 cells; format: cell-based
Method: (§2) Cell Proliferation Assay (MTT) The cell proliferation assay (Promega, Madison, Wis.) was performed as described in Sun et al., Bioorg Med Chem Lett, 2004, Vol. 14, pp. 2041-2046. The absorbance was measured and recorded at 570 nm by a Victor Plate Reader (PerkinElmer, Boston, Mass.).

[5] = test system: prostate cancer DU-145 cells; assay: Cell proliferation assay (MTT), DU-145 cells; format: cell-based; settings: single agents and combinations
Method: as §2

[6] = test system: ovarian cancer OVCAR8 cells; assay: Cell proliferation assay (MTT), OVCAR8 cells; format: cell-based, Human; settings: single agents and combinations
Method: (§3) Cell Proliferation Assay (MTT)
(§4) The cell proliferation assay was performed as described previously in Sun et al., Bioorg Med Chem Lett, 2004, Vol. 14, pp. 2041-2046. Briefly, 50 μl aliquots of medium with different concentrations of compounds were added to 96-well plates. All compound concentrations were tested in triplicate. Another 50 μl of the cell stock (1×10^5 cells/ml of media) was dispensed into each test well and the plates were incubated at 37° C. in a CO2 incubator for 3 days. Following the incubation period, 15 μl of the dye solution was added to each well and the plates were then incubated at 37° C. for 4 hours, followed by the addition of 100 μl per well of the solubilization solution. The plates were incubated at 37° C. until the contents in each well became a uniform-colored solution. The absorbance was measured and recorded at 570 nm by a Victor Plate Reader.
(§5) The cell proliferation assay (Promega, Madison, Wis.) was performed as described in Sun et al., Bioorg Med Chem Lett, 2004, Vol. 14, pp. 2041-2046. The absorbance was measured and recorded at 570 nm by a Victor Plate Reader (PerkinElmer, Boston, Mass.).

[7] = test system: ovarian cancer NCI/ADR-RES cells; assay: VPA-induced cell morphological change, NCI/ADR-RES cells; format: cell-based
From the text: as §1

[8] = test system: pancreatic cancer CFPAC-1 cells; assay: Cell proliferation assay (MTT), CFPAC-1 cells; format: cell-based, Human; settings: single agents and combinations
Method: as §3, §4, §5

[9] = test system: hepatoma HTB-52 cells; assay: Cell proliferation assay (MTT), HTB-52 cells; format: cell-based; settings: single agents and combinations
Method: as §2

[10] = test system: ovarian cancer NCI/ADR-RES cells; assay: Cell proliferation assay (MTT), NCI/ADR-RES cells; format: cell-based
Method: as §2

[11] = test system: hepatoma HB-8064 (Hep3B) cells; assay: Cell proliferation assay (MTT), HB-8064 cells; format: cell-based
Method: as §2

[12] = test system: T-ALL HPB-ALL cells; assay: Cell proliferation assay (MTT), HPB-ALL cells; format: cell-based, Human
Method: as §2

[13] = test system: prostate cancer PC-3 cells; assay: Cell proliferation assay (MTT), PC-3 cells; format: cell-based; settings: single agents and combinations
Method: as §2

[14] = test system: SCLC DMS53 cells; assay: VPA-induced cell morphological change, DMS53 cells; format: cell-based
From the text: as §1

## CCCC(CCC)C(=O)O [VPA, valproic acid]
[1]
  cell morphological change, in words: no effect
[2]; BON tumors in nude mice, VPA at 200 mg/kg s.c. once a day, five times a week
  tumor inhibitory rate: 47.9%
[2]; nude mice
  suppression of BON tumors, in words: induced suppression
[3]; VPA at 200 mg/kg s.c. once a day, five times a week, FIG. 42
  tumor inhibitory rate: 36.7%
[3]; VPA at 200 mg/kg, FIG. 37
  tumor inhibitory rate: 46%
[3]; nude mice, FIG. 42
  suppression of Hela tumors, in words: induced suppression
[4]
  cell growth suppression (MTT), in words: little effect; also recorded: not apparent
[5]
  cell growth suppression (MTT), in words: displayed its anti-proliferative ability; also recorded: displays its anti-proliferation ability
[6]
  cell growth suppression (MTT), in words: displayed its anti-proliferative ability; also recorded: displays its anti-proliferation ability
[7]
  cell morphological change, in words: no effect
[8]
  cell growth suppression (MTT), in words: displayed its anti-proliferative ability
[9]
  cell growth suppression (MTT), in words: displayed its anti-proliferative ability
[10]
  cell growth suppression (MTT), in words: displayed its anti-proliferative ability; also recorded: displays its anti-proliferation ability
[11]
  cell growth suppression (MTT), in words: displayed its anti-proliferative ability
[12]
  cell growth suppression (MTT), in words: displayed its anti-proliferative ability
[13]
  cell growth suppression (MTT), in words: displayed its anti-proliferative ability; also recorded: displays its anti-proliferation ability
[14]
  cell morphological change, in words: no effect
